The source of these data is patent US6710064B2, “Hydantoin compounds useful as anti-inflammatory agents” (Bristol-Myers Squibb Co., priority 2000, dated 2004).

Structures are written as SMILES.

A word on the melting point: it is the temperature of the solid-liquid transition.

`O=C1[C@H]2C[C@@H](OCc3ccc(Br)cc3)CN2C(=O)N1c1cc(Cl)cc(Cl)c1` [Example 6, (7aR,6R)-2-(3,5-dichloro-phenyl)-6-(4-bromobenzyloxy)-tetrahydro-pyrrolo[1,2-c]imidazole-1,3-dione] gave a melting point of 135 °C.
